Source: ChEMBL document CHEMBL3351764, “Design, synthesis and biological activity of flavonoid derivatives as selective agonists for neuromedin U 2 receptor” (Bioorg Med Chem, 2014)
Activity calls are given as the source filed them. The rule behind the calls is not given here.

What was measured:
[1] = molecular target: Melanocortin receptor 5 (Mus musculus) (UniProt P41149); assay: Agonist activity at mouse MC5 receptor at 100 uM to 5 mM
[2] = molecular target: T1, Neuromedin-U receptor 1 (Homo sapiens) (UniProt Q9HB89); assay: Agonist activity at human NMU1 receptor at 100 uM to 5 mM
T1 sequence (whole entry): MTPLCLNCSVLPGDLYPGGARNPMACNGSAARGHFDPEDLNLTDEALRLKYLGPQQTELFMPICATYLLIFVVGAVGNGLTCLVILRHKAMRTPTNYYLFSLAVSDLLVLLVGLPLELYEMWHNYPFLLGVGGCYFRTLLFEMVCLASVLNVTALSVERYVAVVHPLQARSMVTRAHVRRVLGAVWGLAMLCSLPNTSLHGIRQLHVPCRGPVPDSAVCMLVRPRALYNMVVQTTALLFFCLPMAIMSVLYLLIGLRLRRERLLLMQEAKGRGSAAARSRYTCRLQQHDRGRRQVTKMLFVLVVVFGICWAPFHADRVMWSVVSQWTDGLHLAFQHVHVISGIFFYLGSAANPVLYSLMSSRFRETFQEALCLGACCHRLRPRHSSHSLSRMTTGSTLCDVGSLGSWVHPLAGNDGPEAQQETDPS

[3] = molecular target: T2, 5-hydroxytryptamine receptor 2C (Homo sapiens) (UniProt P28335); assay: Agonist activity at human 5HT2C receptor at 100 uM to 5 mM
T2 sequence (whole entry): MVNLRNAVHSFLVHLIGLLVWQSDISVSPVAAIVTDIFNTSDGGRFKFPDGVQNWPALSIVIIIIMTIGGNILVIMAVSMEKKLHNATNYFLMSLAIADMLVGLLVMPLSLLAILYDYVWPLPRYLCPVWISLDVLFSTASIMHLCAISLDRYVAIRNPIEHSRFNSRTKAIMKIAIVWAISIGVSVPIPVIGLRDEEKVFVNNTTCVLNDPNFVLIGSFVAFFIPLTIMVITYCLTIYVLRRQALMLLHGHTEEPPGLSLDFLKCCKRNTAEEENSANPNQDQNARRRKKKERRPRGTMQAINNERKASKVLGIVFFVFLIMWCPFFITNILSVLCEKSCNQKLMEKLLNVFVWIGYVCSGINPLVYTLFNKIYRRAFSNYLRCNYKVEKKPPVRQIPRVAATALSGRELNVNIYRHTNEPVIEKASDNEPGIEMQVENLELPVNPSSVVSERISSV

[4] = molecular target: D(1B) dopamine receptor (Homo sapiens) (UniProt P21918); assay: Agonist activity at human D5 receptor at 100 uM to 5 mM
Chain of D(1B) dopamine receptor (Homo sapiens) (P21918 whole entry): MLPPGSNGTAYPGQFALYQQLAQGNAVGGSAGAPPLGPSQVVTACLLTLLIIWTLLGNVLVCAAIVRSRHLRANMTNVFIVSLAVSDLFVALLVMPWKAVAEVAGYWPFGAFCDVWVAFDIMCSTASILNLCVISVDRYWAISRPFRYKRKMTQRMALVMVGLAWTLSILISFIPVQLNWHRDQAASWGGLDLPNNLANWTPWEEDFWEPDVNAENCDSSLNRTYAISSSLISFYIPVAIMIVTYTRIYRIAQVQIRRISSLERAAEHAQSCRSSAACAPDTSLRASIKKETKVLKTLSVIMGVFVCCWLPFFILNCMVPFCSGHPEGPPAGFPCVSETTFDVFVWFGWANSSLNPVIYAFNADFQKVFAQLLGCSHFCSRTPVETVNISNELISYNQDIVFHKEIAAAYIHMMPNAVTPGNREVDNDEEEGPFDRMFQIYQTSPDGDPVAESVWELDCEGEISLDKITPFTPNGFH

[5] = molecular target: T3, Adenosine receptor A1 (Homo sapiens) (UniProt P30542); assay: Agonist activity at human A1 receptor at 100 uM to 5 mM
T3 sequence (whole entry): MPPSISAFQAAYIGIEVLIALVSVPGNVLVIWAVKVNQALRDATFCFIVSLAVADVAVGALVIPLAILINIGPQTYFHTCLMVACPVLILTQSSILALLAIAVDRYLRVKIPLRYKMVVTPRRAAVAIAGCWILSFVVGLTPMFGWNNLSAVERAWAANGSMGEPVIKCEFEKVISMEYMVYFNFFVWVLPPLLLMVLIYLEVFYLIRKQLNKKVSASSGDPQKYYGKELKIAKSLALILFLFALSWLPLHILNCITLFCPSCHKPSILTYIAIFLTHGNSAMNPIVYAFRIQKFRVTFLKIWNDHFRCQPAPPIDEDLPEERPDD

[6] = molecular target: T4, Adenosine receptor A3 (Homo sapiens) (UniProt P0DMS8); assay: Agonist activity at human A3 receptor at 100 uM to 5 mM
T4 sequence (whole entry): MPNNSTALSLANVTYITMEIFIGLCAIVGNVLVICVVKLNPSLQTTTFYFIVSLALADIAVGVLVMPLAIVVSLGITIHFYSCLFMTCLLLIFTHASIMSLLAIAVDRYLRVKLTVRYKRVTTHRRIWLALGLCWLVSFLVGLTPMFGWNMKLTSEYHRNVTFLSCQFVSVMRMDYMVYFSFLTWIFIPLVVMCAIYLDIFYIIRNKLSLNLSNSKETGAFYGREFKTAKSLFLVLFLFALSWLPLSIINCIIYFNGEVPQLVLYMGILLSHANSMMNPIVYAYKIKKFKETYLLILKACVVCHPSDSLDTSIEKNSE

[7] = molecular target: T5, Parathyroid hormone/parathyroid hormone-related peptide receptor (Homo sapiens) (UniProt Q03431); assay: Agonist activity at human PTH receptor at 100 uM to 5 mM
T5 sequence (whole entry): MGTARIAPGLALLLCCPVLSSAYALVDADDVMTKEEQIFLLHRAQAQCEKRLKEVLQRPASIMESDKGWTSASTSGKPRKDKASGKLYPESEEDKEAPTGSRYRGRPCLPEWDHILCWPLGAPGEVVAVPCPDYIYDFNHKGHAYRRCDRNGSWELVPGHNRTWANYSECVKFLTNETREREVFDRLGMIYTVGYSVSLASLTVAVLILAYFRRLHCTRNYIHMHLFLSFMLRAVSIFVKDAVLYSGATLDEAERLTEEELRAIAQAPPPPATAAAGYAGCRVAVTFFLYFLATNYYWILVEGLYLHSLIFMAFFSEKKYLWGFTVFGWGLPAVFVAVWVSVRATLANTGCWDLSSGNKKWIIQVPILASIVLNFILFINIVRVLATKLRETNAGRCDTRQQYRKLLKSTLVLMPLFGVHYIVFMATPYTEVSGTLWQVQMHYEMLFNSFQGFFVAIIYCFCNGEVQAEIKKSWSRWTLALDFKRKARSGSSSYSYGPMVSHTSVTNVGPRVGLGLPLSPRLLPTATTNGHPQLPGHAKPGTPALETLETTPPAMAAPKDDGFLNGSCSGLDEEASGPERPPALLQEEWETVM

[8] = molecular target: T6, Neuropeptide Y receptor type 5 (Homo sapiens) (UniProt Q15761); assay: Agonist activity at human NPY5 receptor at 100 uM to 5 mM
T6 sequence (whole entry): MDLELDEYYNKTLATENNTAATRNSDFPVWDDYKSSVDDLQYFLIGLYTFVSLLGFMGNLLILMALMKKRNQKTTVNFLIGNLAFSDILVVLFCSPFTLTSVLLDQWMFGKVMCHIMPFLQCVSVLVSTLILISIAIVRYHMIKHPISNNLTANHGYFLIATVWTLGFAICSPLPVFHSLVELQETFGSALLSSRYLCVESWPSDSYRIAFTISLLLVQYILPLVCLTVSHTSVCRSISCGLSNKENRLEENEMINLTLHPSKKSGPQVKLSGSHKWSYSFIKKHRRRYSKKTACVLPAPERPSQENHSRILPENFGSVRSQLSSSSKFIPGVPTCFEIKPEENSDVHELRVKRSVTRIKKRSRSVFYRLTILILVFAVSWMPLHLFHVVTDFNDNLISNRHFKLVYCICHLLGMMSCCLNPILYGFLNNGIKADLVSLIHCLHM

Chain of Melanocortin receptor 5 (Mus musculus) (P41149 whole entry): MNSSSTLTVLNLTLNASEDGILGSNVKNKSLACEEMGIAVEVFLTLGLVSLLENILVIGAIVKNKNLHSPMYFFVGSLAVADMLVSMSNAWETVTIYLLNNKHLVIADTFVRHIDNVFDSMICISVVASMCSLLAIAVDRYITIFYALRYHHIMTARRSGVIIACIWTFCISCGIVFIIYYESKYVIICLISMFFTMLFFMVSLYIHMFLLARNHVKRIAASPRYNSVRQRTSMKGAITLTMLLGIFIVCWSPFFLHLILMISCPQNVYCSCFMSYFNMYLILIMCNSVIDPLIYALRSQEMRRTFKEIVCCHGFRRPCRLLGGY

Row | Activity [1] | Activity [2] | Activity [3] | Activity [4] | Activity [5] | Activity [6] | Activity [7] | Activity [8] | Compound
1 | inactive | inactive | inactive | inactive | inactive | inactive | inactive | inactive | O=c1c(O)c(-c2ccccc2F)oc2ccccc12
2 | inactive | inactive | inactive | inactive | inactive | inactive | inactive | inactive | COc1cccc(-c2oc3ccccc3c(=O)c2O)c1
3 | inactive | inactive | inactive | inactive | inactive | inactive | inactive | inactive | CN(C)c1ccc(-c2oc3ccccc3c(=O)c2O)cc1
4 | inactive | inactive | inactive | inactive | inactive | inactive | inactive | inactive | O=c1c(O)c(-c2ccc(O)c(O)c2)oc2ccccc12
5 | inactive | inactive | inactive | inactive | inactive | inactive | inactive | inactive | O=c1c(O)c(-c2cccc(Cl)c2)oc2ccccc12
6 | inactive | inactive | inactive | inactive | inactive | inactive | inactive | inactive | O=c1c(O)c(-c2ccc(Br)cc2F)oc2ccccc12
7 | inactive | inactive | inactive | inactive | inactive | inactive | inactive | inactive | O=c1c(O)c(-c2ccc(O)cc2)oc2ccccc12
8 | inactive | inactive | inactive | inactive | inactive | inactive | inactive | inactive | O=c1cc(-c2ccc(O)cc2)oc2ccccc12
9 | inactive | inactive | inactive | inactive | inactive | inactive | inactive | inactive | COc1ccc(C2C=Cc3ccccc3O2)cc1 (racemic)
10 | inactive | inactive | inactive | inactive | inactive | inactive | inactive | inactive | CCN(CC)c1ccc(-c2oc3ccccc3c(=O)c2O)cc1
11 | inactive | inactive | inactive | inactive | inactive | inactive | inactive | inactive | COc1ccc(-c2oc3ccccc3c(=O)c2O)cc1O
12 | inactive | inactive | inactive | inactive | inactive | inactive | inactive | inactive | COc1cc(-c2oc3ccccc3c(=O)c2O)ccc1O
13 | inactive | inactive | inactive | inactive | inactive | inactive | inactive | inactive | COc1ccc(C2C=Cc3ccccc3O2)cc1O (racemic)
14 | inactive | inactive | inactive | inactive | inactive | inactive | inactive | inactive | COc1c(-c2cc(Br)ccc2F)oc2ccccc2c1=O
15 | inactive | inactive | inactive | inactive | inactive | inactive | inactive | inactive | O=c1c(O)c(-c2cccc(Cl)c2F)oc2ccccc12
16 | inactive | inactive | inactive | inactive | inactive | inactive | inactive | inactive | O=c1c(OCCO)c(-c2cc(Br)ccc2F)oc2ccccc12
17 | inactive | inactive | inactive | inactive | inactive | inactive | inactive | inactive | O=c1c(O)c(-c2cc(Br)ccc2F)oc2ccccc12
18 | inactive | inactive | inactive | inactive | inactive | inactive | inactive | inactive | O=c1c(O)c(-c2c(F)ccc(F)c2Cl)oc2ccccc12
